Test results reported in ChEMBL document CHEMBL1157798, “Iminochromene inhibitors of dynamins I and II GTPase activity and endocytosis” (J Med Chem, 2010).
Activity calls are given as the source filed them. No cut-off for these calls is given here.

Assays:
[1] = Inhibition of sheep brain dynamin 1 by malachite green GTPase assay; set-up: species or system Ovis aries
Ovis aries [2] = species: Ovis aries; test: Inhibition of sheep brain dynamin 1 at 100 uM by malachite green GTPase assay
Ovis aries [3] = species: Ovis aries; test: Inhibition of sheep brain dynamin 1 at 300 uM by malachite green GTPase assay
U2OS = test: Cytotoxicity against human U2OS cells assessed as change in cell morphology after 30 mins; format: cell-based; details: 0.5 h
Dynamin-1 = biological target: T1, Dynamin-1 (Rattus norvegicus, UniProt P21575); test: Inhibition of dynamin 1-mediated synaptic vesicle endocytosis in Sprague-Dawley rat synaptosomes assessed as uptake of FM 4-64 dye after 30 mins by automated acquisition and analysis system; format: subcellular, Brain
T1 sequence (P21575 whole entry): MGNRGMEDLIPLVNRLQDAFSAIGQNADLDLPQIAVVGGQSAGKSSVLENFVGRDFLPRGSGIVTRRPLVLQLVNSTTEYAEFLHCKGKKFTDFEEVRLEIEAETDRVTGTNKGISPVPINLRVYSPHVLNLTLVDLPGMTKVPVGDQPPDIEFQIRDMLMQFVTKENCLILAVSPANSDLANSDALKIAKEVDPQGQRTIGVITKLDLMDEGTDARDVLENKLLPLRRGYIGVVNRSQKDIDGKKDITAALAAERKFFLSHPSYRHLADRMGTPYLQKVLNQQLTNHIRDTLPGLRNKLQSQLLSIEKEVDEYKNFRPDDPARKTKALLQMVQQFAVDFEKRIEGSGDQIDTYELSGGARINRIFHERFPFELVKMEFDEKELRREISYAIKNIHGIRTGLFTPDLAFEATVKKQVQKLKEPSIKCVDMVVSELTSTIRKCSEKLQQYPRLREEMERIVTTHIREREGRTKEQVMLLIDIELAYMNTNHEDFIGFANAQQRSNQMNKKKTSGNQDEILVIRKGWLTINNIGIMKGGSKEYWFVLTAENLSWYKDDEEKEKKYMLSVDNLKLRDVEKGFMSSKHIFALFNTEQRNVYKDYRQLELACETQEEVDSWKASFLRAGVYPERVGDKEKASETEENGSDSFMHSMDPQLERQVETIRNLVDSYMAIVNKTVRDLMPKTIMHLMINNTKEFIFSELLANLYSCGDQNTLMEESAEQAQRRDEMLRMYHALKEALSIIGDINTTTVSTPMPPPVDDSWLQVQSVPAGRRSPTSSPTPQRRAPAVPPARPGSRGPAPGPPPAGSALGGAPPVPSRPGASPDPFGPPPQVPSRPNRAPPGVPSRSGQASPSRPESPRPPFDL

SMILES	IC50 [1]	inhibition (Ovis aries [2])	also measured
N#C/C(=C\c1ccc(C2(C(F)(F)F)N=N2)cc1)C(=O)NCCCNC(=O)/C(C#N)=C/c1ccc(O)c(O)c1	36 µM	–	–
N#C/C(=C\c1ccc(N=[N+]=[N-])cc1)C(=O)NCCCNC(=O)/C(C#N)=C/c1ccc(O)c(O)c1	6.4 µM	–	–
N=c1oc2c(O)c(O)ccc2cc1C(=O)NCCCCCNC(=O)c1cc2ccc(O)c(O)c2oc1=N	19 µM	–	–
N=c1oc2ccccc2cc1C(=O)NCCCCNC(=O)c1cc2ccccc2oc1=N	> 300 µM	< 50%	–
N=c1oc2c(O)c(O)ccc2cc1C(=O)NCCCCCCNC(=O)c1cc2ccc(O)c(O)c2oc1=N	70 µM	–	–
N=c1oc2ccccc2cc1C(=O)NCCNC(=O)c1cc2ccccc2oc1=N	> 300 µM	< 50%	–
N=c1oc2cc(O)ccc2cc1C(=O)NCCNC(=O)c1cc2ccc(O)cc2oc1=N	100 µM	–	inhibition (Ovis aries [3]): inactive
N=c1oc2cc(O)ccc2cc1C(=O)NCCCCCCNC(=O)c1cc2ccc(O)cc2oc1=N	–	< 50%	–
N=c1oc2ccccc2cc1C(=O)NCCCCCCNC(=O)c1cc2ccccc2oc1=N	> 300 µM	< 50%	–
N=c1oc2cc(O)c(O)cc2cc1C(=O)NCCCCCNC(=O)c1cc2cc(O)c(O)cc2oc1=N	17 µM	–	–
N=c1oc2c(O)c(O)ccc2cc1C(=O)NCCCCNC(=O)c1cc2ccc(O)c(O)c2oc1=N	4.3 µM	–	–
N=c1oc2cc(O)ccc2cc1C(=O)NCCCCCNC(=O)c1cc2ccc(O)cc2oc1=N	–	< 50%	–
N#C/C(=C\c1ccc(O)c(O)c1)C(=O)NCCCNC(=O)/C(C#N)=C/c1ccc(O)c(O)c1	1.7 µM	–	–
N#C/C(=C\c1ccc(O)cc1)C(=O)NCCCNC(=O)/C(C#N)=C/c1ccc(O)c(O)c1	51 µM	–	–
N=c1oc2c(O)cccc2cc1C(=O)NCCCNC(=O)c1cc2cccc(O)c2oc1=N	36.6 µM	–	Activity (U2OS): Non-toxic; IC50 (Dynamin-1): Not Active
N=c1oc2c(O)c(O)ccc2cc1C(=O)NCCCNC(=O)c1cc2ccc(O)c(O)c2oc1=N	0.45 µM	–	Activity (U2OS): Non-toxic; IC50 (Dynamin-1; read-out: IC50): 99.5 µM

SMILES	IC50 [1]	inhibition (Ovis aries [2])	also measured
N=c1oc2c(O)cccc2cc1C(=O)NCCNC(=O)c1cc2cccc(O)c2oc1=N	–	< 50%	–
N=c1oc2ccccc2cc1C(=O)NCCCCCNC(=O)c1cc2ccccc2oc1=N	> 300 µM	< 50%	–
N=c1oc2c(O)cccc2cc1C(=O)NCCCCNC(=O)c1cc2cccc(O)c2oc1=N	–	< 50%	–
N=c1oc2c(O)cccc2cc1C(=O)NCCCCCCNC(=O)c1cc2cccc(O)c2oc1=N	–	< 50%	–
N=c1oc2cc(O)c(O)cc2cc1C(=O)NCCNC(=O)c1cc2cc(O)c(O)cc2oc1=N	6 µM	–	–
N=c1oc2cc(O)ccc2cc1C(=O)NCCCCNC(=O)c1cc2ccc(O)cc2oc1=N	–	< 50%	–
N=c1oc2cc(O)c(O)cc2cc1C(=O)NCCCNC(=O)c1cc2cc(O)c(O)cc2oc1=N	0.26 µM	–	Activity (U2OS): Non-toxic; IC50 (Dynamin-1; read-out: IC50): 40.4 µM
N=c1oc2cc(O)c(O)cc2cc1C(=O)NCCCCNC(=O)c1cc2cc(O)c(O)cc2oc1=N	3.2 µM	–	–
N=c1oc2cc(O)ccc2cc1C(=O)NCCCNC(=O)c1cc2ccc(O)cc2oc1=N	17.3 µM	–	IC50 (Dynamin-1; read-out: IC50): 66.1 µM
N=c1oc2ccccc2cc1C(=O)NCCCNC(=O)c1cc2ccccc2oc1=N	> 300 µM	< 50%	–
COc1ccc(/C=C(\C#N)C(=O)NCCCNC(=O)/C(C#N)=C/c2ccc(O)c(O)c2)cc1OC	44 µM	–	–
N=c1oc2c(O)c(O)ccc2cc1C(=O)NCCNC(=O)c1cc2ccc(O)c(O)c2oc1=N	0.33 µM	–	IC50 (Dynamin-1): Not Active
N#C/C(=C\c1ccccc1)C(=O)NCCCNC(=O)/C(C#N)=C/c1ccc(O)c(O)c1	146 µM	–	–
N=c1oc2c(O)cccc2cc1C(=O)NCCCCCNC(=O)c1cc2cccc(O)c2oc1=N	–	< 50%	–
N=c1oc2cc(O)c(O)cc2cc1C(=O)NCCCCCCNC(=O)c1cc2cc(O)c(O)cc2oc1=N	82 µM	–	–
